Data as given in article PMC6894747 (PLoS Pathogens, 2019).
Read-outs that look alike come from different tables or passages of the source. Blank lines part the entries; values can stand above or below the compound they belong to. Positions of bridges follow the written chain, without caps; N, C: chain ends. Residues, ends and D or L forms follow the SMILES beside them.

What was measured:
[1] = tested on: HIV-1 IIIB (subtype B, X4); type: cell-based; conditions: IIIB (subtype B, X4)
Method: (§2) Briefly, 1×10^5/mL MT-2 or M7 cells were infected with different HIV-1 viruses at 100 TCID50 (50% tissue culture infective dose) in the presence or absence of peptides at graded concentrations overnight. Then the culture supernatants were replaced with equal volume of fresh medium. On the fourth day post-infection, supernatants were collected and mixed with equal volume of 5% Triton X-100. […] The IC50 values were calculated with CalcuSyn software [35–36], and inhibition curves of best fit were generated with GraphPad Prism.

[2] = tested on: HIV-1 Bal (subtype B, R5); type: cell-based; conditions: Bal (subtype B, R5)
Method: as §2

rhesus monkey IgG = experiment: Isothermal titration calorimetry (ITC); type: binding; conditions: 300 μM peptide injected into 30 μM rhesus monkey IgG, PBS, 25 °C
Method: ITC assay was performed with an ITC microcalorimeter instrument (NANO ITC, TA Instruments, Lindon, UT) as described previously. In brief, 300 μM peptides were dissolved in PBS and injected into the chamber containing 30 μM of rhesus monkey IgG. The experiments were carried out at 25 °C. The time between injections was 300 s, and the stirring speed was 300 rpm. The heats of dilution were determined in control experiments by injecting peptides into PBS and then subtracting from the heats produced in the corresponding peptide-IgG binding experiments. Data acquisition and analysis were performed using the Origin software, and the best fitting curves were generated with GraphPad Prism.

M7 cells = experiment: Cytotoxicity assay (CCK-8); type: cell-based; conditions: up to 5 μM, 48 h, triplicate
Method: (§1) The potential cytotoxicity of peptides on MT-2 and M7 cells was measured by using the Cell Counting Kit-8 according to the manufacturer’s instructions (CCK-8, Dojindo Laboratories, Kumamoto, Japan). Briefly, 100 μL of a peptide at graded concentrations were added to equal volumes of cells (10^4 cells/well) in a 96-well plate. Cell viability was evaluated using the CCK-8 kit after incubation at 37 °C for 2 days. Incubation with CCK-8 reagents at 37 °C for another 4 h, the absorbance at 450 nm was measured with an ELISA reader, and the percentage of cytotoxicity was calculated.

MT-2 cells = experiment: Cytotoxicity assay (CCK-8); type: cell-based; conditions: up to 5 μM, 48 h, CCK-8; triplicate
Method: as §1

[3] = tested on: H9/HIV-1IIIB target cells with PBMC effector cells; experiment: ADCC assay, 10E8-mediated lysis; type: cell-based, human; conditions: peptide up to 20 μM added to 10E8
Method: H9/HIV-1IIIB cells expressing HIV-1 Env (2.5 × 10^4 cells) as the target cells were seeded into a 96-well plate (25 μL/well), and the mixture of a serially diluted inhibitors and 10E8 (1.5 μg/mL) was added to the culture plate. PBMC (AllCells) as effector cells (2.5 × 10^4 cells in 25 μL) were cocultured with the mixture-treated target cells at 37 °C overnight, and the […] activity was measured using the CytoTox-ONE Homogeneous Membrane Integrity Assay (Promega).

HIV-1 IIIB = experiment: Inhibitors alone or in combination against HIV-1 IIIB; type: cell-based
Method: The samples were serially diluted and tested for their inhibitory activity on HIV-1 infection as described above. The data were analyzed for synergistic effect by calculating the combination index (CI) with the CalcuSyn software. CI values of <0.95 and >1.05 indicate synergy and antagonism, respectively. CI <0.1, 0.1–0.3, 0.3–0.7, 0.7–0.85, and 0.85–0.90 indicate very strong synergism, strong synergism, synergism, moderate synergism, and slight synergism, respectively. Fold of dose reduction was calculated with the ratio of concentrations of inhibitor testing alone and in combination.

[4] = set-up: method as in PMID 16174446; conditions: reported value; cited from earlier work

Compound: CC[C@H](C)[C@H](NC(=O)[C@H](CC(C)C)NC(=O)[C@H](CCC(=O)O)NC(=O)[C@H](CCC(=O)O)NC(=O)[C@@H](NC(=O)[C@H](CCCCN)NC(=O)[C@H](CCCCN)NC(=O)[C@@H](NC(=O)[C@H](Cc1ccc(O)cc1)NC(=O)[C@H](CCC(=O)O)NC(=O)[C@H](CCC(=O)O)NC(=O)[C@@H](NC(=O)[C@H](CCCCN)NC(=O)[C@H](CCCCN)NC(=O)[C@H](CC(=O)O)NC(=O)[C@H](Cc1c[nH]c2ccccc12)NC(=O)[C@H](CCC(=O)O)NC(=O)[C@H](CCC(=O)O)NC(=O)[C@H](Cc1c[nH]c2ccccc12)NC(=O)[C@@H](NC(=O)[C@@H](N)CCSC)[C@@H](C)O)[C@@H](C)CC)[C@@H](C)O)[C@@H](C)CC)C(=O)N[C@@H](CCCCN)C(=O)N[C@@H](CCCCN)C(=O)N[C@@H](CO)C(=O)N[C@@H](CC(=O)O)C(=O)N[C@H]1CSSC[C@@H](C(=O)N[C@H](C(=O)O)[C@@H](C)O)NC(=O)[C@H](Cc2c[nH]c3ccccc23)NC(=O)[C@H](C(C)C)NC(=O)[C@H](CC(C)C)NC(=O)[C@H](CCC(=O)O)NC(=O)CNC(=O)[C@H](CC(C)C)NC(=O)[C@H](Cc2c[nH]cn2)NC(=O)[C@H](Cc2c[nH]c3ccccc23)NC(=O)[C@H](C)NC1=O [CP24-IBP] (H-MTWEEWDKKIEEYTKKIEELIKKSDCAWHLGELVWCT-OH; disulfide 26-36)
- IC50 [1]: 0.0413 µM
- IC50 [2]: 0.011 µM

Compound: CC(C)C[C@@H]1NC(=O)[C@H](Cc2c[nH]cn2)NC(=O)[C@H](Cc2c[nH]c3ccccc23)NC(=O)[C@H](C)NC(=O)[C@@H](NC(=O)[C@@H](N)CC(=O)O)CSSC[C@@H](C(=O)N[C@H](C(=O)O)[C@@H](C)O)NC(=O)[C@H](Cc2c[nH]c3ccccc23)NC(=O)[C@H](C(C)C)NC(=O)[C@H](CC(C)C)NC(=O)[C@H](CCC(=O)O)NC(=O)CNC1=O [IBP]
- Kd (rhesus monkey IgG): 2.44 µM
- in vitro cytotoxicity to M7 cells (M7 cells): no in vitro cytotoxicity
- in vitro cytotoxicity to MT-2 cells (MT-2 cells): no in vitro cytotoxicity
- effect on 10E8-mediated lytic activity [3]: remained about the same

- IC50 (HIV-1 IIIB; experiment N6 / NBD556, HIV-1 IIIB, read-out: IC50 Alone): 28.1 µM
- IC50 (HIV-1 IIIB; mixture N6 / NBD556, HIV-1 IIIB, read-out: IC50 In mixture): 4.61 µM
Compound: CC1(C)CC(NC(=O)C(=O)Nc2ccc(Cl)cc2)CC(C)(C)N1 [NBD556]
- Dose reduction (HIV-1 IIIB; mixture N6 / NBD556, HIV-1 IIIB): 6.1 fold

Compound: enfuvirtide
- reported t1/2 [4]: 3 h
